Data published in patent US20200165291A1, “NEUROACTIVE STEROIDS, COMPOSITIONS, AND USES THEREOF” (Sage Therapeutics, Inc., priority 2014, published 2020).
Like-named read-outs stand apart in the source and are kept apart here.

Legend:
[1] = biological target: T1, recombinant α1β2γ2 GABAA receptors (Homo sapiens, UniProt P14867+P47870); assay: Patch clamp electrophysiology, QPatch, LTK cells; format: cell-based; details: 10 μM test article, GABA EC20 = 2 μM, read-out: GABA (α1β2γ2) Qpatch in Ltk, % efficacy at 10 μM
T1 construct: expressed in transfected cells
T1 sequence (P14867 28-456): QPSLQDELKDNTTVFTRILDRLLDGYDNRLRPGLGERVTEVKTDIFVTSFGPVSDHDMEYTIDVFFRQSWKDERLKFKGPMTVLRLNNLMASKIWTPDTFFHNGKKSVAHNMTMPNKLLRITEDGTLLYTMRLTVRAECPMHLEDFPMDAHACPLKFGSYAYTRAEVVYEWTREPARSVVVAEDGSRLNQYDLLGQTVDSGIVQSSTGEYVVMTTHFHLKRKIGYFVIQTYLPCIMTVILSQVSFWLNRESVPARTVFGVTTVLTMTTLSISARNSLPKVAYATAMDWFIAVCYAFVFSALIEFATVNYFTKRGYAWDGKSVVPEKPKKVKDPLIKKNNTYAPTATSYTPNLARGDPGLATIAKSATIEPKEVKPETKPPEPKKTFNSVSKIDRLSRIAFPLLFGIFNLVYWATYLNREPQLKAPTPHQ
T1 sequence (P47870 25-512 limits assumed): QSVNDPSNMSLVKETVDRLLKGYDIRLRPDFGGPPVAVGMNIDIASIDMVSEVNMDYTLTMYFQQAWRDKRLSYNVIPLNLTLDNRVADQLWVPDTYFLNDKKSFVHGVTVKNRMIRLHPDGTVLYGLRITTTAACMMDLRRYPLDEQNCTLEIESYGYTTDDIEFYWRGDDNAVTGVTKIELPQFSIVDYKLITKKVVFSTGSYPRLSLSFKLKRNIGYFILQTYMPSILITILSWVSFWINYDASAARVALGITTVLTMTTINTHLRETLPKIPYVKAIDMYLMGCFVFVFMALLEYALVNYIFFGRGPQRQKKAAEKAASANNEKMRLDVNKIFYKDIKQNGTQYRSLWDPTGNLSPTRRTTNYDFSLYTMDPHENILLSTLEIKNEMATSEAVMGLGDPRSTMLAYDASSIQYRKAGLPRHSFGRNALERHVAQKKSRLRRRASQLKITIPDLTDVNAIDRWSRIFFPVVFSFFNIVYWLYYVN
T1 sequence (P18507 40-475 partner): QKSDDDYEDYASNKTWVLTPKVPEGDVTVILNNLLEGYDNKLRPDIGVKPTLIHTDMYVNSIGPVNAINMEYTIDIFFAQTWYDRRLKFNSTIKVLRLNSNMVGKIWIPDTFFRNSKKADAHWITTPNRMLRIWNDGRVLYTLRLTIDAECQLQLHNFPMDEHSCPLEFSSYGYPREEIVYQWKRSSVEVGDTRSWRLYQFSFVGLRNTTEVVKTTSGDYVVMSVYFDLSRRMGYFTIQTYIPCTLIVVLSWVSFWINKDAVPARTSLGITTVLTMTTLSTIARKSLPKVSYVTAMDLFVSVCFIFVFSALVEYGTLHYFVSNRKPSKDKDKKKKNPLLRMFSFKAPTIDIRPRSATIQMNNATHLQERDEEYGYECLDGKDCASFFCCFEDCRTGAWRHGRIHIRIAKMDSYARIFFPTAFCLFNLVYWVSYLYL

[2] = biological target: T2, recombinant α4β3δ GABAA receptors (Homo sapiens, UniProt P28472+P48169); assay: Patch clamp electrophysiology, manual patch, CHO cells; format: cell-based; details: 10 μM test article, GABA EC20 = 2 μM, read-out: GABA (α4β3δ) Manual patch in CHO, % efficacy at 10 μM
T2 construct: expressed in transfected cells; host or cells: CHO cells (transient transfection, Lipofectamine)
T2 sequence (P48169 36-554): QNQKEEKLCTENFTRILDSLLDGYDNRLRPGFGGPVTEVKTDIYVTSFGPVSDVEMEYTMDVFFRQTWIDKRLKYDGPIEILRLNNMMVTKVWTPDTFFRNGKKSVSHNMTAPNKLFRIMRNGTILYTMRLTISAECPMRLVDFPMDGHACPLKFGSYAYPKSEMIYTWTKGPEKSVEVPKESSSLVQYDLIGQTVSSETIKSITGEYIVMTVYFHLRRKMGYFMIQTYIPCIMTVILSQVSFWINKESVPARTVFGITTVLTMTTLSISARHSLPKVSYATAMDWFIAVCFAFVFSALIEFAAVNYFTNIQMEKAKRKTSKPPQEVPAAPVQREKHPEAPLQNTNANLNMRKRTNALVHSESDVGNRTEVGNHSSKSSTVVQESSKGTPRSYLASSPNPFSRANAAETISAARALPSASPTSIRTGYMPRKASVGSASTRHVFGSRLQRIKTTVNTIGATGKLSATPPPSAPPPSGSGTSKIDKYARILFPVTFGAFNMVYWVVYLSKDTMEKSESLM
T2 sequence (P28472 26-473): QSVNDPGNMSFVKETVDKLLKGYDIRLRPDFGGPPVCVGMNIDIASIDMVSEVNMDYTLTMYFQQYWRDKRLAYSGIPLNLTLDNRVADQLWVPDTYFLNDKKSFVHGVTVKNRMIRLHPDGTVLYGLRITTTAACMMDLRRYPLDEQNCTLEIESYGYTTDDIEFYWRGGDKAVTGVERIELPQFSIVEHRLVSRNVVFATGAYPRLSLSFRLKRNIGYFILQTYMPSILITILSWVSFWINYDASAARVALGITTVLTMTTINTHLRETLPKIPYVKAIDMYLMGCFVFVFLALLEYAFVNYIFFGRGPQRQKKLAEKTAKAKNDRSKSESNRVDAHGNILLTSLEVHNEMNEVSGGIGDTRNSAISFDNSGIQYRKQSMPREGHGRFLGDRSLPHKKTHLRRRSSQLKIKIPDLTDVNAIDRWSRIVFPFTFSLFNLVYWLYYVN
T2 sequence (O14764 17-452 partner limits assumed): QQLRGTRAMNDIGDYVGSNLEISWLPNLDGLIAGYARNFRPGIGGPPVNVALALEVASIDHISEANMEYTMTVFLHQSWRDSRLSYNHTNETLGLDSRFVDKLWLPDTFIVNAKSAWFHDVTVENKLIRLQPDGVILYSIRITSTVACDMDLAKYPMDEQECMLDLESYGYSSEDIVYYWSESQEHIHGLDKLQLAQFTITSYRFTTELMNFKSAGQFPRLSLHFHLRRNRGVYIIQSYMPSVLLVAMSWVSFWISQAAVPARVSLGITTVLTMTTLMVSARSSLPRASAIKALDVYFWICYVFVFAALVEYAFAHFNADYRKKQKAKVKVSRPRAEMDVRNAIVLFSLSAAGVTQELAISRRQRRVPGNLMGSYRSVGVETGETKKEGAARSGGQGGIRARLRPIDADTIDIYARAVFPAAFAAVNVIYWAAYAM

[3] = tested on: male Sprague Dawley rats; assay: Loss of righting reflex in rats; format: in vivo; details: Rat IV, 5 mpk
Protocol: Loss of Righting Reflex in Rats
The plasma pharmacokinetics and a qualitative assessment of sedation were obtained in male Sprague Dawley rats according to the following procedure. Rats were dosed by intravenous bolus dose (60 seconds) via the foot dorsal vein at doses ranging from 5 to 15 mg/kg in an appropriate vehicle. In order to assess sedation, rats were gently restrained by hand to a lateral position for dose administration. […] If the animal was unable to return to an upright position, the time was recorded as the onset of loss of righting reflex (LRR). […] Sluggish or incomplete righting twice consecutively within a 30 second interval qualifies as a loss of righting reflex. After onset of LRR, animals were assessed every 5 minutes in the same manner. Recovery of righting reflex is defined as the ability of a rat to right itself completely within 20 seconds of being placed in dorsal recumbency. The duration of LRR is defined as the time interval between LRR and the return of righting reflex.

[4] = tested on: PTZ-treated male CD-1 mice; assay: Acute PTZ (pentylenetetrazol-induced seizure) method in mice; format: in vivo; details: Mus musculus, latency to tonic seizures, read-out: Anticonvulsive Effect Dose (minimal effective anticonvulsant dose)
Protocol: The anticonvulsant effect of test compounds were assessed in the pentylenetetazol-induced seizure assay in mice similar to methods described in Giardina & Gasior (2009) Curr Protoc Pharmacol., Chapter 5. Male CD-1 mice were housed in groups of five under controlled conditions (temperature of 22±2° C. and 12:12 light-dark cycle, lights on at 8:00 am) and water and food were available ad libitum. The mice were housed for 1 week prior to behavioral testing, at which time they weighed 25-35 g. Pentylenetetrazol (PTZ, Sigma) was dissolved in sterile 0.9% saline at a concentration of 12 mg/mL concentration for subcutaneous administration. Test compounds were formulated and administered via oral gavage or intraperitoneal injection at a predetermined time-point (typically 30 or 60 minutes) prior to PTZ injection. All solutions were made fresh and were given in a volume of 10 ml/kg body weight.
Mice were acclimated to the test room for at least 30 min before compound administration. Mice were randomized into at least four test groups (vehicle and at least three doses of the test compound) with 10 mice per group. […] Following the drug pretreatment time the mice were injected s.c. with PTZ (120 mg/kg). Immediately following the PTZ injection, mice were individually placed into observation chambers (25×15×15 cm) and a three-channel timer was started. Each mouse was continuously observed for 30 min and the following behaviors were recorded by observers blinded to the treatments: 1) latency to clonic convulsions that persist for 3 sec and followed by an absence of righting reflex 2) latency to tonic convulsions, characterized by the rigid extension of all four limbs that exceeded a 90 degree angle with the body 3) latency to death 4) number of clonic and tonic convulsions. Data are presented as mean±S.E.M and one-way analysis of variance with Dunnett's or Bonferroni's post-hoc test was used to detect significant differences in latency and number between the vehicle and dose group. p values<0.05 were regarded as statistically significant.

[5] = biological target: [35S]-TBPS binding, rat brain cortical membranes (GABA receptor complex); assay: [35S]-TBPS binding (steroid inhibition of TBPS binding); details: in the presence of 5 μM GABA, read-out: 35S-TBPS Radioligand Displacement
Protocol: [35S]-t-Butylbicyclophosphorothionate (TBPS) binding assays using rat brain cortical membranes in the presence of 5 μM GABA has been described (Gee et al, J. Pharmacol. Exp. Ther. 1987, 241, 346-353; Hawkinson et al, Mol. Pharmacol. 1994, 46, 977-985; Lewin, A. H et al., Mol. Pharmacol. 1989, 35, 189-194).
Briefly, cortices are rapidly removed following decapitation of carbon dioxide-anesthetized Sprague-Dawley rats (200-250 g). The cortices are homogenized in 10 volumes of ice-cold 0.32 M sucrose using a glass/teflon homogenizer and centrifuged at 1500×g for 10 min at 4° C. The resultant supernatants are centrifuged at 10,000×g for 20 min at 4° C. to obtain the P2 pellets. The P2 pellets are resuspended in 200 mM NaCl/50 mM Na-K phosphate pH 7.4 buffer and centrifuged at 10,000×g for 10 min at 4° C. This washing procedure is repeated twice and the pellets are resuspended in 10 volumes of buffer. Aliquots (100 μL) of the membrane suspensions are incubated with 3 nM [^35S]-TBPS and 5 μL aliquots of test drug dissolved in dimethyl sulfoxide (DMSO) (final 0.5%) in the presence of 5 μM GABA. The incubation is brought to a final volume of 1.0 mL with buffer. Nonspecific binding is determined in the presence of 2 μM unlabeled TBPS and ranged from 15 to 25%. Following a 90 min incubation at room temp, the assays are terminated by filtration through glass fiber filters (Schleicher and Schuell No. 32) using a cell harvester (Brandel) and rinsed three times with ice-cold buffer. Filter bound radioactivity is measured by liquid scintillation spectrometry. Non-linear curve fitting of the overall data for each drug averaged for each concentration is done using Prism (GraphPad). […] The concentration of test compound producing 50% inhibition (IC50) of specific binding and the maximal extent of inhibition (Imax) are determined for the individual experiments with the same model used for the overall data and then the means±SEM.s of the individual experiments are calculated.
Various compounds are or can be screened to determine their potential as modulators of [^35S]-TBPS binding in vitro. These assays are or can be performed in accordance with the above discussed procedures.

Cc1nnn(CC(=O)[C@H]2CC[C@H]3[C@@H]4CC[C@@H]5C[C@@](O)(CF)CC[C@@H]5[C@H]4CC[C@]23C)n1 [SF-3]
Emax at 10 µM [1]: 100 to 500%
Emax at 10 µM [2]: 100 to 500%
Duration of Rat LRR [3]: A (A ≤ 20 min)
minimal effective dose ([4]; PO (oral administration)): ≤ 1 mg/kg

Cc1nnn(CC(=O)[C@H]2CC[C@H]3[C@@H]4C[C@@H](F)[C@H]5C[C@](C)(O)CC[C@@H]5[C@H]4CC[C@]23C)n1 [SV-5]
Emax at 10 µM [1]: 100 to 500%
Emax at 10 µM [2]: 100 to 500%
Duration of Rat LRR [3]: B (B > 20 min)
minimal effective dose ([4]; PO (oral administration)): ≤ 1 mg/kg

C[C@@]1(O)CC[C@@H]2[C@H]3CC[C@]4(C)[C@@H](C(=O)Cn5ccnn5)CC[C@H]4[C@@H]3C[C@@H](F)[C@H]2C1 [SV-1]
IC50 [5]: 100 to 500 nM
Emax at 10 µM [1]: 100 to 500%
Emax at 10 µM [2]: 100 to 500%
minimal effective dose ([4]; PO (oral administration)): 1 to 3 mg/kg

C[C@@]1(O)CC[C@@H]2[C@H]3CC[C@]4(C)[C@@H](C(=O)Cn5cnnn5)CC[C@H]4[C@@H]3C[C@@H](F)[C@H]2C1 [SV-4]
Emax at 10 µM [1]: 100 to 500%
Emax at 10 µM [2]: 100 to 500%
minimal effective dose ([4]; PO (oral administration)): 1 to 3 mg/kg

C[C@@]1(O)CC[C@H]2[C@@H](CC[C@@H]3[C@@H]2CC[C@]2(C)[C@@H](C(=O)Cn4ccnn4)CC[C@@H]32)C1 [SB-6]
IC50 [5]: 50 to 100 nM
Emax at 10 µM [1]: 100 to 500%
Emax at 10 µM [2]: 100 to 500%
minimal effective dose ([4]; IP (intraperitoneal injection)): 1 to 3 mg/kg

Cc1nnn(CC(=O)[C@H]2CC[C@H]3[C@@H]4CC[C@H]5C[C@](C)(O)CC[C@@H]5[C@H]4CC[C@]23C)n1 [SB-5]
Emax at 10 µM [1]: 100 to 500%
Emax at 10 µM [2]: > 500%
Duration of Rat LRR [3]: B (B > 20 min)
minimal effective dose ([4]; PO (oral administration)): ≤ 1 mg/kg

Cc1nnnn1CC(=O)[C@H]1CC[C@H]2[C@@H]3CC[C@@H]4C[C@](C)(O)CC[C@@H]4[C@H]3CC[C@]12C [SA-6]
IC50 [5]: 1 to 50 nM
Emax at 10 µM [1]: 100 to 500%
Emax at 10 µM [2]: > 500%
minimal effective dose ([4]; PO (oral administration)): 1 to 3 mg/kg

CC[C@@]1(O)CC[C@H]2[C@H](CC[C@@H]3[C@@H]2CC[C@]2(C)[C@@H](C(=O)Cn4nccn4)CC[C@@H]32)C1 [SE-4]
IC50 [5]: 50 to 100 nM
Emax at 10 µM [1]: 100 to 500%
Emax at 10 µM [2]: > 500%
Duration of Rat LRR [3]: A (A ≤ 20 min)

COC[C@@]1(O)CC[C@H]2[C@@H](CC[C@@H]3[C@@H]2CC[C@]2(C)[C@@H](C(=O)Cn4cnnn4)CC[C@@H]32)C1 [SI-1]
IC50 [5]: 100 to 500 nM
Emax at 10 µM [1]: 100 to 500%
Emax at 10 µM [2]: > 500%
minimal effective dose ([4]; PO (oral administration)): 1 to 3 mg/kg

Cc1cnn(CC(=O)[C@H]2CC[C@H]3[C@@H]4CC[C@@H]5C[C@](C)(O)CC[C@@H]5[C@H]4CC[C@]23C)n1 [SA-3]
IC50 [5]: 1 to 50 nM
Emax at 10 µM [1]: 100 to 500%
Emax at 10 µM [2]: > 500%
Duration of Rat LRR [3]: B (B > 20 min)

COC[C@@]1(O)CC[C@H]2[C@@H](CC[C@@H]3[C@@H]2CC[C@]2(C)[C@@H](C(=O)Cn4ccnn4)CC[C@@H]32)C1 [SI-2]
IC50 [5]: 100 to 500 nM
Emax at 10 µM [1]: 100 to 500%
Emax at 10 µM [2]: > 500%
minimal effective dose ([4]; PO (oral administration)): 1 to 3 mg/kg

C[C@@]1(O)CC[C@H]2[C@@H](CC[C@@H]3[C@@H]2CC[C@]2(C)[C@@H](C(=O)Cn4cnnn4)CC[C@@H]32)C1 [SB-2]
IC50 [5]: 100 to 500 nM
Emax at 10 µM [1]: 100 to 500%
Emax at 10 µM [2]: 100 to 500%
minimal effective dose ([4]; IP (intraperitoneal injection)): > 3 mg/kg

C[C@@]1(O)CC[C@H]2[C@H](CC[C@@H]3[C@@H]2CC[C@]2(C)[C@@H](C(=O)Cn4ccnn4)CC[C@@H]32)C1 [SA-9]
IC50 [5]: 1 to 50 nM
Emax at 10 µM [1]: 100 to 500%
Emax at 10 µM [2]: > 500%
minimal effective dose ([4]; IP (intraperitoneal injection)): 1 to 3 mg/kg

COC[C@@]1(O)CC[C@H]2[C@@H](CC[C@@H]3[C@@H]2CC[C@]2(C)[C@@H](C(=O)Cn4nnnc4C)CC[C@@H]32)C1 [SI-3]
Emax at 10 µM [1]: 100 to 500%
Emax at 10 µM [2]: > 500%
minimal effective dose ([4]; PO (oral administration)): ≤ 1 mg/kg

C[C@@]1(O)CC[C@@H]2[C@H]3CC[C@]4(C)[C@@H](C(=O)Cn5ncnn5)CC[C@H]4[C@@H]3C[C@@H](F)[C@H]2C1 [SV-3]
Emax at 10 µM [1]: 100 to 500%
Emax at 10 µM [2]: > 500%
Duration of Rat LRR [3]: A (A ≤ 20 min)

C[C@@]1(O)CC[C@H]2[C@H](CC[C@@H]3[C@@H]2CC[C@]2(C)[C@@H](C(=O)Cn4cnnn4)CC[C@@H]32)C1 [SA-2]
IC50 [5]: 50 to 100 nM
Emax at 10 µM [1]: > 500%
Emax at 10 µM [2]: 100 to 500%
minimal effective dose ([4]; PO (oral administration)): 1 to 3 mg/kg
